Data from patent US10703746B2, “Mutant IDH1 inhibitors useful for treating cancer” (THE UNITED STATES OF AMERICA, AS REPRESENTED BY THE …, priority 2014, dated 2020).

What was measured:
[1] = molecular target: IDH1 R132H (Homo sapiens, UniProt O75874, R132H); experiment: IDH1 R132H enzymatic assay (NADPH depletion coupled to diaphorase/resazurin); assay type: biochemical
[2] = molecular target: IDH1 R132C (Homo sapiens, UniProt O75874, R132C); experiment: IDH1 R132C enzymatic assay (NADPH depletion coupled to diaphorase/resazurin); assay type: biochemical
Sequence of IDH1 R132C (O75874 whole entry R132C): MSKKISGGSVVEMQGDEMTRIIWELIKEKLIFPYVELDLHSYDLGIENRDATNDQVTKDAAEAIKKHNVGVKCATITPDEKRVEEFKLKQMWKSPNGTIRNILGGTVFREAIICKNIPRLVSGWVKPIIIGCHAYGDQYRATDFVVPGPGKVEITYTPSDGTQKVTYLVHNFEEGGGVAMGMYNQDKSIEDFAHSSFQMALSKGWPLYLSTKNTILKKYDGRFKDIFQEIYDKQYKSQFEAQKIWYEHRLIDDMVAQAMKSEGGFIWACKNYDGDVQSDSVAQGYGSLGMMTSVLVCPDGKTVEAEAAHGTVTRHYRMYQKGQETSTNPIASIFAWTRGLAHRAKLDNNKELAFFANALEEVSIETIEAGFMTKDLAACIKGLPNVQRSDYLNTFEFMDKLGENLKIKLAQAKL
Outline: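 NADPH depletion, read via diaphorase/resazurin coupling, after adding substrate at 0.6 mM α-KG and 0.012 mM NADPH. Beforehand, 0.00032 mg/mL enzyme sat with compound 30 min at room temperature in pH 6.5 potassium phosphate buffer with MgCl2, glycerol and BSA.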

[3] = IDH1 R132H enzymatic inhibition, IC50 class
[4] = IDH1 R132C enzymatic inhibition, IC50 class
[5] = enzymatic inhibition, IDH1 R132H
[6] = enzymatic inhibition, IDH1 R132C

Sequence of IDH1 R132H (O75874 whole entry R132H): as the sequence (O75874 whole entry R132C) above, with C132H counted along it

IC50 [1, 3] [µM] | IC50 [2, 4] [µM] | IC50 [1, 5] [µM] | IC50 [2, 6] [µM] | SMILES
0.3 to 1 | < 0.3 | – | – | CCc1cccc(CC)c1-n1c(CC(C)C)c(C(=O)N2CCNCC2CO)cc(-c2nc(-c3ccc(Cl)cc3)cs2)c1=O (centres unmarked) [Compound 272]
5 to 20 | 1 to 5 | – | – | CCc1cccc(CC)c1-n1c(-c2ccn(-c3ccccc3)n2)c(C(=O)N2CCNCC2)cc(-c2nc(-c3ccc(Cl)cc3)cs2)c1=O [Compound 317]
0.3 to 1 | < 0.3 | – | – | CCc1cccc(CC)c1-n1c(C2CCCC2)c(C(=O)N2CCNCC2)cc(-c2nc(-c3ccc(Cl)cc3)cs2)c1=O [Compound 398]
– | – | 0.3 to 1 | 0.3 to 1 | CCOc1cccc(OCC)c1-n1c2c(cc(-c3nc(-c4ccc(Cl)cc4)cs3)c1=O)C(=O)CC(C)(C)C2 [Compound 609]
< 0.3 | < 0.3 | – | – | CCc1cccc(CC)c1-n1c(C=C(C)C)c(C(=O)N2CCNC(C)C2)cc(-c2nc(-c3ccc(Cl)cc3)cs2)c1=O (centres unmarked) [Compound 370]
5 to 20 | 0.3 to 1 | – | – | CCc1cccc(CC)c1-n1c(C)c(C(=O)N[C@@H]2CCCC[C@@H]2N)cc(-c2nc(-c3ccc(Cl)cc3)cs2)c1=O [Compound 214]
0.3 to 1 | < 0.3 | – | – | CCc1cccc(CC)c1-n1c(CC(C)C)c(C(=O)N2CCNCC2)cc(-c2nc(-c3ccc(C(F)(F)F)cc3)c(C)s2)c1=O [Compound 210]
< 0.3 | 0.3 to 1 | – | – | COc1ccc(Cl)c(-n2c(CC(C)C)c(C(=O)N3CCNCC3)cc(-c3nc(-c4ccc(Cl)cc4)cs3)c2=O)c1 [Compound 364]
– | – | < 0.3 | < 0.3 | CCc1cccc(CC)c1-n1c(C(C)OC)c(C(=O)N2CCNCC2)cc(-c2nc(-c3ccc(Cl)cc3)cs2)c1=O (centres unmarked) [Compound 459]
– | – | 5 to 20 | 5 to 20 | CCc1cccc(CC)c1-n1c(C=C(C)C)c(C(=O)N2CCN(c3ccccc3C(F)(F)F)CC2)cc(-c2nc(-c3ccc(Cl)cc3)cs2)c1=O [Compound 480]
> 20 | 5 to 20 | – | – | CCc1cccc(CC)c1-n1c2c(cc(-c3nc(-c4ccc(Cl)cc4)cs3)c1=O)C(=O)OC2 [Compound 194]
1 to 5 | 1 to 5 | – | – | O=C1CCCc2c1cc(-c1nc(-c3ccc(Cl)cc3)cs1)c(=O)n2-c1ccccc1OCC(F)(F)F [Compound 343]
5 to 20 | 5 to 20 | – | – | CC1(C)CC(=O)c2cc(-c3nc(-c4ccc(Cl)cc4)cs3)c(=O)n(-c3ccccc3)c2C1 [Compound 150]
5 to 20 | 5 to 20 | – | – | CCc1cccc(CC)c1-n1c(CC(C)C)c(C(=O)N2CCNCC2)cc(-c2nc(-c3ccc(C(N)=O)cc3)c(C)s2)c1=O [Compound 307]
– | – | 1 to 5 | 5 to 20 | CCc1cccc(CC)c1-n1c(C=C(C)C)c(C(=O)N2CCNCC2)cc(-c2nn(-c3ccc(Cl)cc3)cc2C(F)(F)F)c1=O [Compound 435]
– | – | < 0.3 | < 0.3 | CCOc1ncc(C)cc1-n1c(C=C(C)C)c(C(=O)N2CCNCC2)cc(-c2nc(-c3ccc(Cl)cc3)cs2)c1=O [Compound 544]
– | – | < 0.3 | < 0.3 | CCc1cccc(CC)c1-n1c(-c2cccn2C)c(C(=O)N2CCNCC2)cc(-c2nc(-c3ccc(Cl)cc3)cs2)c1=O [Compound 518]
0.3 to 1 | 1 to 5 | – | – | CCc1cccc(CC)c1-n1c(C)c(C(=O)NCCO)cc(-c2nc(-c3ccc(Cl)cc3)cs2)c1=O [Compound 153]
– | – | > 20 | > 20 | Cc1ccc(CN2CCN(C)CC2)cc1-n1c2c(cc(-c3nc(-c4ccc(Cl)cc4)cs3)c1=O)C(=O)CCC2 [Compound 563]
0.3 to 1 | 0.3 to 1 | – | – | CCc1cccc(CC)c1-n1c(C)c(C(=O)N2CCNC(C(=O)O)C2)cc(-c2nc(-c3ccc(Cl)cc3)cs2)c1=O (centres unmarked) [Compound 198]
– | – | < 0.3 | 0.3 to 1 | CCOc1ncc(Cl)cc1-n1c(C=C(C)C)c(C(=O)N2CCNCC2)cc(-c2nc(-c3ccc(C(F)(F)F)nc3)cs2)c1=O [Compound 513]
1 to 5 | 0.3 to 1 | – | – | CC1(C)CC(=O)c2cc(-c3nc(-c4ccc(Cl)cc4)cs3)c(=O)n(-c3ccccc3OC(F)(F)F)c2C1 [Compound 9]
1 to 5 | < 0.3 | – | – | CCc1cccc(CC)c1-n1c(CC(C)C)c(C(=O)N2CCNC(C(=O)OC)C2)cc(-c2nc(-c3ccc(Cl)cc3)cs2)c1=O (centres unmarked) [Compound 117]

IC50 [1, 3] [µM] | IC50 [2, 4] [µM] | IC50 [1, 5] [µM] | IC50 [2, 6] [µM] | SMILES
> 20 | > 20 | – | – | CCc1cccc(CC)c1-n1c2c(cc(-c3nc(-c4cccc(OC)c4)cs3)c1=O)C(=O)CC(C)(C)C2 [Compound 163]
– | – | < 0.3 | < 0.3 | CCc1cccc(CC)c1-n1c(C=C(C)C)c(C(=O)N2CCNC(C(N)=O)C2)cc(-c2nc(-c3ccc(Cl)cc3)cs2)c1=O (centres unmarked) [Compound 426]
1 to 5 | 1 to 5 | – | – | CC1(C)CC(=O)c2cc(-c3nc(-c4ccc(Cl)cc4)cs3)c(=O)n(-c3cc(C(F)(F)F)ccc3N3CCOCC3)c2C1 [Compound 92]
5 to 20 | 1 to 5 | – | – | CCc1cccc(CC)c1-n1c(C)c(C(=O)N2CCN[C@H](C(=O)OC)C2)cc(-c2nc(-c3ccc(Cl)cc3)cs2)c1=O [Compound 41]
– | – | 1 to 5 | 1 to 5 | COc1cc(F)ccc1-n1c2c(cc(-c3nc(-c4ccc(Cl)cc4)cs3)c1=O)C(=O)CC(C)(C)C2 [Compound 557]
5 to 20 | 1 to 5 | – | – | CCc1cccc(CC)c1-n1c(C(C)C)c(C(=O)N2CCN[C@H](C(=O)OC)C2)cc(-c2nc(-c3ccc(Cl)cc3)cs2)c1=O [Compound 247]
5 to 20 | 1 to 5 | – | – | CCc1cccc(CC)c1-n1c(C)c(C(=O)NC2CCCC(N)C2)cc(-c2nc(-c3ccc(Cl)cc3)cs2)c1=O (mixture of isomers) [Compound 126]
1 to 5 | 1 to 5 | – | – | COc1cccc(C(=O)O)c1-n1c2c(cc(-c3nc(-c4ccc(Cl)cc4)cs3)c1=O)C(=O)CC(C)(C)C2 [Compound 46]
< 0.3 | < 0.3 | – | – | CCc1ccc(N(C)C)cc1-n1c(C=C(C)C)c(C(=O)N2CCNCC2)cc(-c2nc(-c3ccc(Cl)cc3)cs2)c1=O [Compound 333]
– | – | < 0.3 | < 0.3 | CCc1cccc(CC)c1-n1c(C=C(C)C)c(C(=O)N2CCNCC2)cc(-c2ccn(-c3ccc(OC4CC4)cc3)n2)c1=O [Compound 415]
> 20 | 5 to 20 | – | – | O=C1CCCc2c1cc(-c1nc(-c3ccc(Cl)cc3)cs1)c(=O)n2-c1ccccc1CO [Compound 634]
– | – | 0.3 to 1 | 0.3 to 1 | CCc1cccc(CC)c1-n1c(CC(C)C)c(C(=O)N2CCNCC2)cc(-c2nc(-c3ccc(Cl)cc3)c(C#N)s2)c1=O [Compound 501]
0.3 to 1 | 0.3 to 1 | – | – | CCc1cccc(CC)c1-n1c2c(cc(-c3nc(-c4ccc(C)cc4)cs3)c1=O)C(=O)CC(C)(C)C2 [Compound 233]
1 to 5 | 1 to 5 | – | – | CCc1cccc(CC)c1-n1c(C)c(C(=O)N2CCCC(O)C2)cc(-c2nc(-c3ccc(Cl)cc3)cs2)c1=O (centres unmarked) [Compound 250]
< 0.3 | < 0.3 | – | – | CCc1cccc(CC)c1-n1c(C=C(C)C)c(C(=O)N2CCNC(CCO)C2)cc(-c2nc(-c3ccc(Cl)cc3)cs2)c1=O (centres unmarked) [Compound 371]
1 to 5 | 0.3 to 1 | – | – | CC1(C)CC(=O)c2cc(-c3nc(-c4ccc(Cl)cc4)cs3)c(=O)n(-c3ccccc3C(C)(C)C)c2C1 [Compound 241]
1 to 5 | 1 to 5 | – | – | CCc1cccc(CC)c1-n1c(C)c(C(=O)NC)cc(-c2nc(-c3ccc(Cl)cc3)cs2)c1=O [Compound 108]
1 to 5 | 1 to 5 | – | – | CCc1cccc(CC)c1-n1c(C=C(C)C)c(C(=O)N2CCNCC2)cc(-c2nn(-c3ccc(Cl)cc3)cc2Cl)c1=O [Compound 345]
> 20 | 1 to 5 | – | – | CC(C)n1c2c(cc(-c3nc(-c4ccc(Cl)cc4)cs3)c1=O)C(=O)CC(C)(C)C2 [Compound 55]
1 to 5 | 0.3 to 1 | – | – | CCc1cccc(CC)c1-n1c(CC(C)C)c(C(=O)NC[C@H](N)C(=O)O)cc(-c2nc(-c3ccc(Cl)cc3)cs2)c1=O [Compound 221]
1 to 5 | 0.3 to 1 | – | – | CCc1cccc(CC)c1-n1c(CC(C)C)c(C(=O)N[C@H](C)CO)cc(-c2nc(-c3ccc(Cl)cc3)cs2)c1=O [Compound 64]
1 to 5 | 0.3 to 1 | – | – | CCc1cccc(CC)c1-n1c(C)c(C(=O)N2CCN[C@H](CO)C2)cc(-c2nc(-c3ccc(Cl)cc3)cs2)c1=O [Compound 16]
< 0.3 | 0.3 to 1 | – | – | CCc1ncc(C)cc1-n1c(C=C(C)C)c(C(=O)N2CCNCC2)cc(-c2nc(-c3ccc(Cl)cc3)cs2)c1=O [Compound 330]
